Reference: patent EP4692094A1 (Beijing Konruns Pharmaceutical Co., Ltd., priority 2023, dated 2024)

Tests used:
[1] = target: T1, KAT8 (Homo sapiens, UniProt Q9H7Z6); assay: Enzymatic activity assay for KAT8 acetyltransferase (TR-FRET); format: biochemical; conditions: KAT8 10 nM, AcCOA 2 µM
T1 construct: purchased active motife (Active Motif) 81225
T1 sequence (Q9H7Z6 1-458): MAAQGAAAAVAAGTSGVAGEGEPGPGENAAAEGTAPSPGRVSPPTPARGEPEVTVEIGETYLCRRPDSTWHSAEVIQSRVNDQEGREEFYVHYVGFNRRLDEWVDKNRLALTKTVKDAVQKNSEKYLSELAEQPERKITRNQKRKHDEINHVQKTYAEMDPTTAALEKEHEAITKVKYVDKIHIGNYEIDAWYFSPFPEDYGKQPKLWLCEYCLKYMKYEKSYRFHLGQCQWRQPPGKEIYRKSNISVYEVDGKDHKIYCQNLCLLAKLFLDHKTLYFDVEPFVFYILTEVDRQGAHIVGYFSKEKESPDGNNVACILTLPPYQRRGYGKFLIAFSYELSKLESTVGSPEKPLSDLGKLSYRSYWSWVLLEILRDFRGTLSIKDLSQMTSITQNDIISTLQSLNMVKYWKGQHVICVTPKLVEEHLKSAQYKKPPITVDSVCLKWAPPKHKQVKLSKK
Protocol: (§1) The acetylation effects of KAT6B on histone substrate H3, as well as KAT5, KAT7, and KAT8 on histone substrate H4, were determined using the TR-FRET (time-resolved fluorescence resonance energy transfer) method. The determination was performed according to experimental procedures similar to those in "Pharmacological Experiment I": 1.2 Preparation of compounds: The compounds prepared in the examples were each dissolved in dimethylsulfoxide to give solutions at a concentration of 10 mmol/L. • 1) The compounds in the examples were each diluted from 10 mmol/L stock solution to 0.2 mmol/L, i.e., 1 µL of the compound was added to 49 µL of DMSO, and 3-fold dilution was performed to give 10 concentrations. • 2) 50 nL of the test compounds were transferred to 384 reaction plates using Echo, two replicates for each compound, and the plates were centrifuged at a rotation speed of 1000 rpm for 1 min, the final concentration of dimethylsulfoxide (DMSO) being 0.5%.
(§2) For KAT8: • 3) 2.5 µL of the KAT8 enzyme solution at a final concentration of 10 nM was added to the 384 reaction plates in step 2), and the plates were centrifuged at 1000 rpm for 1 min and incubated at 25 °C for 10 min. • 4) 2.5 µL of […] at a final concentration of 300 nM and an AcCOA (acetyl-CoA) reaction solution at a final concentration of 2 µM were added to the 384 reaction plates in step 3), and the plates were centrifuged at a rotation speed of 1000 rpm for 1 min and incubated at 25 °C for 90 min. • 5) 5 µL of Eu-Ab& Ulight-SA detection solution was separately added to the 384 reaction plates in step 4) of the 4 groups described above, and the plates were centrifuged at 1000 rpm for 1 min and incubated at 25 °C for 60 min. • 6) The HTRF […] signals were read using a BMG high-throughput drug-screening multi-mode microplate reader.
(§3) The acetylation levels of the histones in the groups were analyzed by the GraphPad Prism 8 software. […]

[2] = system: human breast cancer cell line ZR-75-1; assay: Assay for cell growth inhibitory activity (3D hydrogel culture, CCK-8); format: cell-based; conditions: 96 h; for viability at 0.0001 µM: ZR-75-1, 0.1 nM, read-out: Cell survival rate at example drug concentration 0.1 nM; for viability at 0.001 µM: ZR-75-1, 1 nM, read-out: Cell survival rate at example drug concentration 1 nM; for viability at 0.01 µM: ZR-75-1, 10 nM, read-out: Cell survival rate at example drug concentration 10 nM; for viability at 0.1 µM: ZR-75-1, 100 nM, read-out: Cell survival rate at example drug concentration 100 nM; for viability at 1 µM: ZR-75-1, 1000 nM, read-out: Cell survival rate at example drug concentration 1000 nM
Protocol: The human breast cancer cell line ZR-75-1 (1 × 10^^6 cells per cell culture dish with 100-mm diameter) was cultured in a 1640 culture medium, and 1% double antibiotics (streptomycin and penicillin), 10% fetal bovine serum (FBS), and 1% glutamine (Glumax) were added simultaneously. The cell culture dish was placed at 37 °C with 5% CO2 for 2 days for culture until the cell confluence reached 80%-90% to give cells in the logarithmic growth phase.
• 1) The example compounds were each dissolved in dimethylsulfoxide to give solutions at a concentration of 10 mmol/L, and the solutions were diluted to 250 µmol/L in 10-fold gradient for 5 concentrations, i.e., 0.2 nmol/L, 2 nmol/L, 20 nmol/L, 200 nmol/L, and 2000 nmol/L. • 2) Blank control wells were prepared by adding 0.1% dimethylsulfoxide to the cultured cells, and were used as high-reading control wells; cell-free 3D hydrogel was used as background wells. • 3) The cultured cells were separately added to the compounds in the examples at 0.2 nmol/L, 2 nmol/L, 20 nmol/L, 200 nmol/L, and 2000 nmol/L as test wells, with the same volumes as the original culture solutions.
• 1) The cells were collected, resuspended in a PBS balanced salt solution, and counted; and the cells were mixed with the 3D hydrogel stock solution and prepared into hydrogel cell suspensions with proper density. • 2) The 3D hydrogel cell suspension (5 × 10^^4 cells) was added to each well in 96-well cell culture plates with low surface adsorption, and the plates were incubated at 37 °C with 5% CO2 for 20 min. • 3) The complete culture medium containing the compound prepared in 1.2 with an equal volume to that of the cell suspension in step 2 was added to the 96-well cell culture plate. • 4) The cells were cultured at 37 °C in a 5% CO2 incubator for 96 h.
• 1) The complete culture medium in the upper layer above the hydrogel was pipetted from each well of the 96-well cell culture plate with a vacuum pump or a manual pipette with careful processing to avoid breaking the hydrogel lower layer. • 2) The complete culture medium containing the CCK-8 substrate with an equal volume to that of the original hydrogel was added to each well. • 3) The plate was cultured at 37 °C with 5% CO2 for 1 h. • 4) The 96-well cell culture plate was placed in a microplate reader, and the values of A450 and A630 were separately detected.
Data analysis: The relative inhibitory level was analyzed by using Excel software, and the survival rates of cells under different compound culture conditions were obtained; [formula]
High-reading control well: cells + dimethylsulfoxide; background well: cell-free hydrogel. Table 7. Cell proliferation inhibitory activity of some of example compounds

[3] = target: T2, KAT5 (Homo sapiens, UniProt Q92993); assay: Enzymatic activity assay for KAT5 acetyltransferase (TR-FRET, histone substrate H4); format: biochemical; conditions: KAT5 1.5 nM, H4 200 nM, AcCOA 2 µM
T2 construct: purchased signalChem K314-380G
T2 sequence (Q92993 whole entry): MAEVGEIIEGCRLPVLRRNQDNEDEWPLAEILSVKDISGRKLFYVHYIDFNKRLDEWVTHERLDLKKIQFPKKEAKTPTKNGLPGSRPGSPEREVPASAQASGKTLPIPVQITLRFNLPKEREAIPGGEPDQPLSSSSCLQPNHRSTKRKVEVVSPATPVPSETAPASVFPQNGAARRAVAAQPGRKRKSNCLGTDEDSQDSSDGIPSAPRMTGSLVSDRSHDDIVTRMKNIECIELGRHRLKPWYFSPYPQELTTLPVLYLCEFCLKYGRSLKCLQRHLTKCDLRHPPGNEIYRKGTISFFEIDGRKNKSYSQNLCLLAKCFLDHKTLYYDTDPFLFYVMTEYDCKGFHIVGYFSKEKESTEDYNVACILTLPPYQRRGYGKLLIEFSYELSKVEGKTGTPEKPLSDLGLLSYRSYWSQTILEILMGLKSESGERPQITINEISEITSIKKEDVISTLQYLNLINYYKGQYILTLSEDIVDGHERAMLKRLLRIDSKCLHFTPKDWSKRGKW
Protocol: as §1, with “0.5%. […]” for “0.5%.”
as §2, §3

| SMILES | IC50 [1] [nM] | viability at 0.0001 µM [2] [%] | viability at 0.001 µM [2] [%] | viability at 0.01 µM [2] [%] | viability at 0.1 µM [2] [%] | viability at 1 µM [2] [%] | IC50 [3] [nM] |
| --- | --- | --- | --- | --- | --- | --- | --- |
| COc1cc2c(cc1S(=O)(=O)Nc1noc3cc(Cn4cccn4)nc(OC)c13)CCCC2 [Example 2, N-(6-((1H-Pyrazol-1-yl)methyl)-4-methoxyisoxazolo[4,5-c]pyridin-3-yl)-3-methoxy-5,6,7,8-tetrahydronaphthalene-2-sulfonamide] | 118 | 63 | 51 | 43 | 43 | 40 | 219 |
| COc1nc(Cn2cccn2)cc2onc(NS(=O)(=O)c3cccc4c3OCCO4)c12 [Example 4, N-(6-((1H-Pyrazol-1-yl)methyl)-4-methoxyisoxazolo[4,5-c]pyridin-3-yl)-2,3-dihydrobenzo[b][1,4]dioxine-5-sulfonamide] |  | 75 | 61 | 41 | 37 | 29 |  |
| COc1nc(Cn2cccn2)cc2onc(NS(=O)(=O)c3cccc4ccoc34)c12 [Example 5, N-(6-((1H-Pyrazol-1-yl)methyl)-4-methoxyisoxazolo[4,5-c]pyridin-3-yl)benzofuran-7-sulfonamide] |  | 80 | 85 | 69 | 54 | 35 |  |
| COc1ccc2c(c1S(=O)(=O)Nc1noc3cc(Cn4cccn4)nc(OC)c13)OCC2 [Example 9, N-(6-((1H-Pyrazol-1-yl)methyl)-4-methoxyisoxazolo[4,5-c]pyridin-3-yl)-6-methoxy-2,3-dihydrobenzofuran-7-sulfonamide] |  | 63 | 48 | 41 | 38 | 32 |  |
| COc1ccc2ccoc2c1S(=O)(=O)Nc1noc2cc(Cn3cccn3)nc(OC)c12 [Example 10, N-(6-((1H-Pyrazol-1-yl)methyl)-4-methoxyisoxazolo[4,5-c]pyridin-3-yl)-6-methoxybenzofuran-7-sulfonamide] | 79.4 | 62 | 45 | 39 | 33 | 29 | 66.4 |
| COc1cc2c(cc1S(=O)(=O)Nc1noc3cc(Cn4cccn4)nc(OC)c13)OCC2 [Example 59, N-(6-((1H-Pyrazol-1-yl)methyl)-4-methoxyisoxazolo[4,5-c]pyridin-3-yl)-5-methoxy-2,3-dihydrobenzofuran-6-sulfonamide] | 327 |  |  |  |  |  | 171 |
